The text below walks through data of patent US20080207705A1, “Heteroaryl-Imidazole Derivatives as Cannabinoid CB1 Receptor Antagonists” (Green Cross Corporation, priority 2007, published 2008).

The first experiment deals with T1, rat CB-1 receptor (Rattus norvegicus, UniProt P20272).
T1 construct: The tissue obtained from the brain of SD rats was homogenized; from tissue; host or cells: brain of SD rats (membrane pellet of homogenate)
T1 sequence (P20272 whole entry): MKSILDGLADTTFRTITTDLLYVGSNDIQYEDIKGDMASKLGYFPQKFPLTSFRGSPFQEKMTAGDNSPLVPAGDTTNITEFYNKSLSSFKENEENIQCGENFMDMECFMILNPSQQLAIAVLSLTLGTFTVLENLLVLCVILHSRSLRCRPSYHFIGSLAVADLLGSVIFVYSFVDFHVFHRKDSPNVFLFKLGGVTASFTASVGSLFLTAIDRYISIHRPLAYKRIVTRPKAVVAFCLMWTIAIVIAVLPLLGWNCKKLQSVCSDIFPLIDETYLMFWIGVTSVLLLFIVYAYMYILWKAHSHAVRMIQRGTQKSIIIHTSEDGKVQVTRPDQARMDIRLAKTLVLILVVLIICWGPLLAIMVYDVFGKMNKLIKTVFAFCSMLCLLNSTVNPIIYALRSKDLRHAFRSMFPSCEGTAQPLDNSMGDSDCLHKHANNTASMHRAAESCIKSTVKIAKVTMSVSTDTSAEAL
Kind of experiment: rat CB-1 receptor binding protocol with [3H]CP-55940.
Conditions: not given
Take `CCc1c(-c2nnc(C3(c4ccc(OC)cc4)CC3)o2)nc(-c2ccc(Cl)cc2Cl)n1-c1ccc(Br)cc1` [Example 42, 2-(1-(4-Bromophenyl)-2-(2,4-dichlorophenyl)-5-ethyl-1H-imidazol-4-yl)-5-(1-(4-methoxyphenyl)cyclopropyl)-1,3,4-oxadiazole]: the concentration for half-maximal inhibition (IC50) (usually the point on the concentration scale where inhibition reaches its midpoint) was found to be 18.6 nM.
Same read-out and setting: the result for `CC(C)(C)c1nnc(-c2nc(-c3ccccc3Cl)n(-c3ccc(Br)cc3)c2Cn2cncn2)s1` [Example 168, 2-(5-((1H-1,2,4-Triazol-1-yl)methyl)-1-(4-bromophenyl)-2-(2-chlorophenyl)-1H-imidazol-4-yl)-5-tert-butyl-1,3,4-thiadiazole] reads 4.01 nM; that for `CCc1c(-c2nnc(C(C)(C)C)o2)nc(-c2ccc(Cl)cc2Cl)n1-c1ccc(Cl)cc1` [Example 15, 2-tert-butyl-5-(1-(4-chlorophenyl)-2-(2,4-dichlorophenyl)-5-ethyl-1H-imidazol-4-yl)-1,3,4-oxadiazole], 18.1 nM.
The molecule `Cc1c(-c2nnc(C(C)C)o2)nc(-c2ccc(Cl)cc2Cl)n1-c1ccc(Cl)cc1` [Example 9, 2-(1-(4-Chlorophenyl)-2-(2,4-dichlorophenyl)-5-methyl-1H-imidazol-4-yl)-5-isopropyl-1,3,4-oxadiazole] had an IC50 of 25.8 nM.
With `CCc1c(-c2nnc(C3(c4ccc(C)cc4)CC3)o2)nc(-c2ccc(Cl)cc2Cl)n1-c1ccc(Br)cc1` [Example 43, 2-(1-(4-Bromophenyl)-2-(2,4-dichlorophenyl)-5-ethyl-1H-imidazol-4-yl)-5-(1-p-tolylcyclopropyl)-1,3,4-oxadiazole], the concentration for half-maximal inhibition (IC50) is 8.38 nM.
In turn, `CC(C)(C)c1nnc(-c2nc(-c3ccc(Cl)cc3Cl)n(-c3ccc(Cl)cc3)c2C2CC2)s1` [Example 113, 2-tert-Butyl-5-(1-(4-chlorophenyl)-5-cyclopropyl-2-(2,4-dichlorophenyl)-1H-imidazol-4-yl)-1,3,4-thiadiazole] displayed a half-inhibitory concentration (IC50) of 58 nM.

The experiment is the same for the next values; noted with them: [3H]CP-55940, brain tissue of SD rats, 30 °C for 60 min; read-out: IC50.
For `CCc1c(-c2nnc(C3(c4ccc(C)cc4)CC3)s2)nc(-c2ccc(Cl)cc2Cl)n1-c1ccc(Br)cc1` [Example 133, 2-(1-(4-Bromophenyl)-2-(2,4-dichlorophenyl)-5-ethyl-1H-imidazol-4-yl)-5-(1-p-tolylcyclopropyl)-1,3,4-thiadiazole], the IC50 was found to be 5.72 nM.
With `CCc1c(-c2nc(C(C)(C)C)co2)nc(-c2ccc(Cl)cc2Cl)n1-c1ccc(Br)cc1` [Example 191, 2-(1-(4-Bromophenyl)-2-(2,4-dichlorophenyl)-5-ethyl-1H-imidazol-4-yl)-4-tert-butyloxazole], the IC50 amounted to 30 nM.
`Clc1ccc(C2(c3nnc(-c4nc(-c5ccc(Cl)cc5Cl)n(-c5ccc(Br)cc5)c4Cn4cncn4)o3)CC2)cc1` [Example 77, 2-(5-((1H-1,2,4-Triazol-1-yl)methyl)-1-(4-bromophenyl)-2-(2,4-dichlorophenyl)-1H-imidazol-4-yl)-5-(1-(4-chlorophenyl)cyclopropyl)-1,3,4-oxadiazole]: the IC50 stood at 3.36 nM.
Turning to `CCCc1c(-c2nnc(C3CCC3)o2)nc(-c2ccc(Cl)cc2Cl)n1-c1ccc(Br)cc1` [Example 32, 2-(1-(4-Bromophenyl)-2-(2,4-dichlorophenyl)-5-propyl-1H-imidazol-4-yl)-5-cyclobutyl-1,3,4-oxadiazole], the IC50 came to 68.9 nM.
As to `CCCc1c(-c2nnc(C3CCCCC3)s2)nc(-c2ccc(Cl)cc2Cl)n1-c1ccc(Cl)cc1` [Example 129, 2-(1-(4-Chlorophenyl)-2-(2,4-dichlorophenyl)-5-propyl-1H-imidazol-4-yl)-5-cyclohexyl-1,3,4-thiadiazole], the IC50 is 51.5 nM.
Same read-out and setting: the result for `CC(C)c1c(-c2nnc(C(C)(C)C)s2)nc(-c2ccc(Cl)cc2Cl)n1-c1ccc(Br)cc1` [Example 114, 2-(1-(4-Bromophenyl)-2-(2,4-dichlorophenyl)-5-isopropyl-1H-imidazo-4-yl)-5-tert-butyl-1,3,4-thiadiazole] reads 6.49 nM; that for `Cc1c(-c2nnc(C(C)(C)C)o2)nc(-c2ccc(Cl)cc2Cl)n1-c1ccc(Cl)cc1` [Example 1, 2-tert-Butyl-5-(1-(4-chlorophenyl)-2-(2,4-dichlorophenyl)-5-methyl-1H-imidazol-4-yl)-1,3,4-oxadiazole], 13.2 nM; that for `Cc1c(-c2nnc(C3CCCCC3)s2)nc(-c2ccc(Cl)cc2Cl)n1-c1ccc(Cl)cc1` [Example 91, 2-(1-(4-Chlorophenyl)-2-(2,4-dichlorophenyl)-5-methyl-1H-imidazol-4-yl)-5-cyclohexyl-1,3,4-thiadiazole], 46 nM.
In the case of `FC(F)(F)C1(c2nnc(-c3nc(-c4ccccc4Cl)n(-c4ccc(Br)cc4)c3Cn3cncn3)s2)CCC1` [Example 170, 2-(5-((1H-1,2,4-Triazol-1-yl)methyl)-1-(4-bromophenyl)-2-(2-chlorophenyl)-1H-imidazol-4-yl)-5-(1-(trifluoromethyl)cyclobutyl)-1,3,4-thiadiazole], the IC50 was found to be 1.75 nM.
Still for that read-out and setting: the result for `CCCc1c(-c2nnc(C3CCC3)s2)nc(-c2ccc(Cl)cc2Cl)n1-c1ccc(Br)cc1` [Example 122, 2-(1-(4-Bromophenyl)-2-(2,4-dichlorophenyl)-5-propyl-1H-imidazol-4-yl)-5-cyclobutyl-1,3,4-thiadiazole] reads 37.4 nM; that for `CCCc1c(-c2nnc(C3CCCCC3)o2)nc(-c2ccc(Cl)cc2Cl)n1-c1ccc(Cl)cc1` [Example 39, 2-(1-(4-Chlorophenyl)-2-(2,4-dichlorophenyl)-5-propyl-1H-imidazol-4-yl)-5-cyclohexyl-1,3,4-oxadiazole], 86.9 nM.
`CCCCc1cnc(-c2nc(-c3ccc(Cl)cc3Cl)n(-c3ccc(Cl)cc3)c2C)s1` [Example 195, 5-Butyl-2-(1-(4-chlorophenyl)-2-(2,4-dichlorophenyl)-5-methyl-1H-imidazol-4-yl)thiazole]: the IC50 was determined as 63.3 nM.
With `CCCc1c(-c2nnc(C3(c4ccc(Cl)cc4)CCC3)o2)nc(-c2ccc(Cl)cc2Cl)n1-c1ccc(Cl)cc1` [Example 38, 2-(1-(4-Chlorophenyl)-2-(2,4-dichlorophenyl)-5-propyl-1H-imidazol-4-yl)-5-(1-(4-chlorophenyl)cyclobutyl)-1,3,4-oxadiazole], the half-inhibitory concentration (IC50) worked out at 11.7 nM.
For the molecule `CCCC(C)c1nnc(-c2nc(-c3ccc(Cl)cc3Cl)n(-c3ccc(Cl)cc3)c2CC)s1` (stereo not drawn) [Example 106, 2-(1-(4-Chlorophenyl)-2-(2,4-dichlorophenyl)-5-ethyl-1H-imidazol-4-yl)-5-(pentan-2-yl)-1,3,4-thiadiazole], the half-maximal inhibitory concentration (IC50) amounted to 12.9 nM.
On the same count and under the same terms, the result for `Cc1c(-c2nnc(C3(c4ccc(Cl)cc4)CC3)o2)nc(-c2ccc(Cl)cc2Cl)n1-c1ccc(Br)cc1` [Example 48, 2-(1-(4-Bromophenyl)-2-(2,4-dichlorophenyl)-5-methyl-1H-imidazol-4-yl)-5-(1-(4-chlorophenyl)cyclopropyl)-1,3,4-oxadiazole] reads 18.7 nM; that for `CCCC(C)c1nnc(-c2nc(-c3ccc(Cl)cc3Cl)n(-c3ccc(Cl)cc3)c2C)s1` (stereo not drawn) [Example 96, 2-(1-(4-Chlorophenyl)-2-(2,4-dichlorophenyl)-5-methyl-1H-imidazol-4-yl)-5-(pentan-2-yl)-1,3,4-thiadiazole], 12.7 nM.
Take `Cc1c(-c2nnc(C3(C(F)(F)F)CCC3)o2)nc(-c2ccc(Cl)cc2Cl)n1-c1ccc(Br)cc1` [Example 47, 2-(1-(4-Bromophenyl)-2-(2,4-dichlorophenyl)-5-methyl-1H-imidazol-4-yl)-5-(1-(trifluoromethyl)cyclobutyl)-1,3,4-oxadiazole]: the IC50 is 27.6 nM.
`Cc1c(-c2nnc(C(C)(C)C)s2)nc(-c2ccc(Cl)cc2Cl)n1-c1ccc(Cl)cc1` [Example 90, 2-tert-Butyl-5-(1-(4-chlorophenyl)-2-(2,4-dichlorophenyl)-5-methyl-1H-imidazol-4-yl)-1,3,4-thiadiazole]: the IC50 was 20.2 nM.
